Laboratory results reported in patent US9458153B2, “Dihydroquinolizinones for the treatment and prophylaxis of hepatitis B virus infection” (Hoffmann-La Roche Inc., priority 2014, dated 2016).

These compounds were tested on HBsAg (assay: HBsAg assay (chemiluminescence immunoassay of secreted HBsAg in HepG2.2.15 culture supernatant)). Details: HBsAg secretion reduced by 50% vs no drug control; HepG2.2.15 cells; CLIA kit.
Type: cell-based, HBV
How it was run: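 IC50 came from dose-response curves of HBsAg in culture supernatant, measured semi-quantitatively by chemiluminescent immunoassay. The HBV-producing HepG2.2.15 line was dosed in duplicate with a three-fold compound dilution series, with DMSO at 1% final and DMSO alone as the no-drug control.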

Q: With `COCCCOc1cc2c(cc1OC)-c1cc(=O)c(C(=O)O)cn1C(C(C)(C)C)C2` (centres unmarked) [Example 131, 6-tert-butyl-10-methoxy-9-(3-methoxypropoxy)-2-oxo-6,7-dihydrobenzo[a]quinolizine-3-carboxylic acid] as the compound, how does the IC50 read?
A: 1 nM

Q: With `COCCOc1cc2c(cc1OC)-c1cc(=O)c(C(=O)O)cn1C(C1(C)CC1)C2` (centres unmarked) [Example 134, 10-methoxy-9-(2-methoxyethoxy)-6-(1-methylcyclopropyl)-2-oxo-6,7-dihydrobenzo[a]quinolizine-3-carboxylic acid] as the compound, how does the IC50 read?
A: 7 nM

Q: For `COCCCOc1cc2c(c(Cl)c1F)-c1cc(=O)c(C(=O)O)cn1C(C(C)C)C2` (centres unmarked) [Example 137, 11-chloro-10-fluoro-6-isopropyl-9-(3-methoxypropoxy)-2-oxo-6,7-dihydrobenzo[a]quinolizine-3-carboxylic acid], which IC50 is on record?
A: 15 nM

Q: For `COc1cc2c(cc1OCC(C)(C)CO)CC(C(C)C)n1cc(C(=O)O)c(=O)cc1-2` (centres unmarked) [Example 144, 9-(3-hydroxy-2,2-dimethyl-propoxy)-6-isopropyl-10-methoxy-2-oxo-6,7-dihydrobenzo[a]quinolizine-3-carboxylic acid], which IC50 is on record?
A: 26 nM

Q: How did the IC50 turn out when `COc1cc2c(cc1OCC(C)(C)CO)CC(C(C)(C)C)n1cc(C(=O)O)c(=O)cc1-2` (centres unmarked) [Example 149, 6-tert-butyl-9-(3-hydroxy-2,2-dimethyl-propoxy)-10-methoxy-2-oxo-6,7-dihydrobenzo[a]quinolizine-3-carboxylic acid] was run?
A: 2 nM

Q: `COc1cc2c(cc1OCCCCCO)CC(C(C)(C)C)n1cc(C(=O)O)c(=O)cc1-2` (centres unmarked) [Example 152, 6-tert-butyl-9-(5-hydroxypentoxy)-10-methoxy-2-oxo-6,7-dihydrobenzo[a]quinolizine-3-carboxylic acid] was tested. Which IC50 did it give?
A: 2 nM

Q: How did the IC50 turn out when `COc1cc2c(cc1OCCCCCCO)CC(C(C)(C)C)n1cc(C(=O)O)c(=O)cc1-2` (centres unmarked) [Example 155, 6-tert-butyl-9-(6-hydroxyhexoxy)-10-methoxy-2-oxo-6,7-dihydrobenzo[a]quinolizine-3-carboxylic acid] was run?
A: 2 nM

Q: With `COc1cc2c(cc1OCCCCCCN)CC(C(C)(C)C)n1cc(C(=O)O)c(=O)cc1-2` (centres unmarked) [Example 160, 9-(6-aminohexoxy)-6-tert-butyl-10-methoxy-2-oxo-6,7-dihydrobenzo[a]quinolizine-3-carboxylic acid] as the compound, how does the IC50 read?
A: 18 nM

Same assay, conditions: Hepatitis B virus, HepG2.2.15, HBsAg secretion reduced by 50% vs no drug control; HepG2.2.15 cells; CLIA kit

Q: How did the IC50 turn out when `COCCCOc1cc2c(cc1F)-c1cc(=O)c(C(=O)O)cn1C(C(C)C)C2` (centres unmarked) [Example 140, 10-fluoro-6-isopropyl-9-(3-methoxypropoxy)-2-oxo-6,7-dihydrobenzo[a]quinolizine-3-carboxylic acid] was run?
A: 31 nM

Q: How did the IC50 turn out when `COc1cc2c(cc1OCC(F)(F)CO)CC(C(C)(C)C)n1cc(C(=O)O)c(=O)cc1-2` (centres unmarked) [Example 141, 6-tert-butyl-9-(2,2-difluoro-3-hydroxy-propoxy)-10-methoxy-2-oxo-6,7-dihydrobenzo[a]quinolizine-3-carboxylic acid] was run?
A: 7 nM

Q: With `COc1cc2c(cc1OCCCO)CC(C(C)C)n1cc(C(=O)O)c(=O)cc1-2` (centres unmarked) [Example 147, 9-(3-hydroxypropoxy)-6-isopropyl-10-methoxy-2-oxo-6,7-dihydrobenzo[a]quinolizine-3-carboxylic acid] as the compound, how does the IC50 read?
A: 30 nM

Q: `COCCCCOc1cc2c(cc1OC)-c1cc(=O)c(C(=O)O)cn1C(C(C)C)C2` (centres unmarked) [Example 148, 6-isopropyl-10-methoxy-9-(4-methoxybutoxy)-2-oxo-6,7-dihydrobenzo[a]quinolizine-3-carboxylic acid] was tested. Which IC50 did it give?
A: 5 nM

Q: How did the IC50 turn out when `COc1cc2c(cc1OCCCCO)CC(C(C)(C)C)n1cc(C(=O)O)c(=O)cc1-2` (centres unmarked) [Example 158, 6-tert-butyl-9-(4-hydroxybutoxy)-10-methoxy-2-oxo-6,7-dihydrobenzo[a]quinolizine-3-carboxylic acid] was run?
A: 3 nM

Q: How did the IC50 turn out when `COc1cc2c(cc1OCC#CCO)CC(C(C)(C)C)n1cc(C(=O)O)c(=O)cc1-2` (centres unmarked) [Example 159, 6-tert-butyl-9-(4-hydroxybut-2-ynoxy)-10-methoxy-2-oxo-6,7-dihydrobenzo[a]quinolizine-3-carboxylic acid] was run?
A: 66 nM
